Bridge positions count the residues as written; N and C are the ends. Ends that are not written are not given here. I, II: the chains in the order shown. * marks the point of attachment. Palmitoyl = CCCCCCCCCCCCCCCC(=O)*
Assays:
[1] = system: collagen II, aggrecan and F-actin in human chondrocytes; assay: Immunocytochemistry staining and fluorescence intensity analysis after three days; assay type: cell-based; conditions: three days in vitro
Procedure: For immunocytochemistry (ICC), 12-mm glass coverslips were coated with sterile filtered 0.01 mg/mL poly-D-lysine (Sigma-Aldrich) solution and incubated overnight at 37° C. The coverslips were washed three times with sterile water and air-dried for at least 30 minutes. Cells were seeded on coverslips at a density of approximately 3,000 cells/coverslip and cultured for 24 h. Cells were then treated with PA in solution for 3 days in vitro. Following treatment, cells were fixed in 4% paraformaldehyde for 15 minutes at room temperature.
(§1) Fixed samples were permeabilized and blocked in a solution of 0.1% (v/v) Triton X-100 and 1% normal horse serum (Invitrogen) for 2 hours at room temperature. Samples were incubated with primary antibodies overnight at 4° C. The following primary antibodies were used: rabbit anti-Sox9 (1:500, Abcam), mouse anti-Aggrecan (1:500, ThermoFisher), mouse anti-Collagen II (1:500, ThermoFisher), and mouse anti-Nuclei (1:500, Sigma-Aldrich). The next day, samples were incubated with AlexaFluor 488 secondary antibody, AlexaFluor 555 secondary antibody, Phalloidin AlexaFluor 488, and/or Phalloidin AlexaFluor 633 (1:1000, Invitrogen) for 2-3 h at room temperature. For 2D cell culture, samples were then incubated with DAPI (1:1000, Invitrogen) for 10 minutes at room temperature. If not already on a glass coverslip, samples were mounted with Immu-Mount (Thermo Scientific) and imaged on a Nikon A1R Spectral microscope. Image analysis was performed using ImageJ software.

[2] = system: Smad2 phosphorylation (intracellular TGF-β1 signaling) in human chondrocytes; assay: Western blot of phosphorylated Smad2 after 4 h treatment; assay type: cell-based; conditions: for activation of p-Smad2 with addition of pan-TGF-β-neutralizing antibody 1D11: with vs without 1D11
Procedure: (§2) For western blot of 4 h PA treatments, cells were seeded in 6-well plates at a density of 600,000 cells/well and cultured for 24 h. […] Cells were then treated with PA in solution for 4 h in vitro. For western blot of 3-day PA treatments, cells were seeded in 6-well plates at a density of 230,000 cells/well and cultured for 24 h. Cells were then treated with PA in solution for 3 days in vitro.
(§3) Protein was extracted from cells using Halt Protease and Phosphatase Inhibitor Cocktail (Thermo Scientific) and a BCA assay (Thermo Scientific) was performed to determine protein content of each sample. Cell protein was loaded into and separated using a 4-20% SDS-PAGE gel (Bio-Rad). It was then electrotransferred from the gel to a nitrocellulose membrane (Bio-Rad). The membranes were blocked with 10% milk solution (Bio-Rad) for 30 minutes followed by an overnight incubation with primary antibodies at 4° C. The following primary antibodies were used: rabbit anti-pSmad2 (1:1000, Cell Signaling), rabbit anti-Smad2 (1:1000, Cell Signaling), rabbit anti-Sox9 (1:500, Abcam), mouse anti-Aggrecan (1:500, ThermoFisher), rabbit anti-COMP/Cartilage oligomeric matrix protein (1:500, Abcam), mouse anti-Collagen II (1:500, ThermoFisher), and mouse anti-Actin (1:1000, Novus Bio). Membranes were then incubated with their corresponding secondary HRP-conjugated antibodies (1:1000, ThermoFisher). Protein signals were detected using Radiance Bioluminescent ECL substrate (Azure Biosystems). Densitometry analysis, standardized to total receptor content or actin as a control for protein loading, was performed using ImageJ software. For quantification, experimental triplicate samples were analyzed, and two different experiments were conducted.

[3] = Dynamic light scattering of TGF-β1 mimetic peptide; assay type: physicochemical; conditions: peptide alone, 100 mol %, 1 wt %, 25° C.
Procedure: DLS measurements were performed on a Malvern Zetasizer Nano ZSP light scattering spectrometer. The TGF-β1 mimetic peptide alone, without PA, was prepared at 1 wt % as previously described. During the sample measurement, the temperature was kept at 25° C. The sample was equilibrated for 30 seconds before each measurement was taken. The duration of each measurement was 10 seconds, and the measurement angle was 173° backscatter. The attenuator was determined by the instrument automatically, as was the number of accumulations for each run. Each measurement run was repeated 3 times.

[4] = system: collagen II, COMP, aggrecan and Sox9 in human chondrocytes; assay: Western blot of ECM proteins after three days treatment; assay type: cell-based; conditions: 10 μM, three days in vitro
Procedure: as §2, §3

[5] = cited from earlier work
[6] = Transverse-relaxation (T2) NMR spectroscopy of PA assemblies; assay type: physicochemical; conditions: backbone PA assemblies
Procedure: NMR spectra were acquired at 600 MHz on a Brucker Neo system with QCI-F cryoprobe. NMR spectra for PAs were recorded at 25° C. using TFA-d, H2O/D2O in 9/1 ratio (D2O contains 0.05 wt. % 3-(trimethylsilyl) propionic-2,2,3,3-d4 acid, sodium salt) as solvents. Chemical shifts are reported in part per million (ppm). The […] was 15 μs and typical spectra required 32 scans.
The spin-spin relaxation rates were measured using the Carr-Purcell-Gill-Meiboom pulse sequence with a delay time of 0.2 ms in a variable loop. The peak intensity data was fit to and exponential in the form:
[formula] where τ is the length of the delay time, R2 is the spin-spin relaxation rate and b are the baseline.^2 Cell Culture

[7] = Rheology of PA hydrogels (strain sweep, G′/G″ crossover); assay type: physicochemical; conditions: PA gels, 10 mol % co-assemblies
Procedure: Gels were made using 2 wt % PA solutions prepared as previously described, using 10 mol % co-assemblies of epitope PA with diluent PA. 12-well chamber slides (Ibidi) were coated with 0.01 mg/mL poly-D-lysine (Sigma-Aldrich) solution and incubated overnight at 37° C. The wells were washed three times with water and air-dried for at least 30 minutes. 120 μL of PA solution was pipetted evenly into the well and gelling solution comprised of 110 mM NaCl, 3 mM KCl, and 25 mM CaCl2 was pipetted dropwise on top of the PA solution. The gels were incubated at 37° C. for 30 minutes, and then excess gelling solution was removed.
Measurements were performed on an Anton Paar MCR302 rheometer with a 25 mm parallel-plate fixture. 120 μL of the PA/HA hybrid slurry was placed on the bottom plate and 30 μL of a 50 mM CaCl2/75 mM NaCl gelling solution was placed on the upper fixture. The fixture was lowered to a gap of 0.5 mm for 10 min during which time a 0.1% oscillatory strain was applied with a 10 rad/s angular frequency. The gap height was allowed to vary to keep the normal force at 0 N. Next, a strain sweep was performed at 10 rad/s from 0.1% to 100% strain to measure the strain to break the gel.

[8] = system: human chondrocytes encapsulated in PA hydrogels; assay: F-actin ICC and confocal microscopy of chondrocytes encapsulated in PA gels; assay type: cell-based; conditions: three days in vitro, equal concentrations of cells encapsulated
Procedure: as §1
Chondrocytes were trypsinized and resuspended in growth media for counting, and then pelleted and resuspended to 6×10^7 cells/mL in growth media. The cell solution was mixed 1:2 v/v with sterile PA solution prepared at 3 wt % in 30 mM NaCl. For gels also encapsulating rhTGF-β1 protein (R&D Systems), soluble protein was added to PA solutions after thermal annealing. 120 μL of PA/cell solution was mixed thoroughly by pipetting gently and then placed into PDL-coated 12-well chamber slides (Ibidi). Sterile gelling solution, comprised of 110 mM NaCl, 3 mM KCl, and 25 mM CaCl2, was pipetted dropwise on top of the PA/cell solution and the gels were incubated for 30 minutes at 37° C. Following incubation, excess gelling solution was removed and 250 μL of growth media was added to each well. The media was removed after 3 days for LDH viability assays as described above. For ICC, after 3 days of in vitro culture, gels were fixed in 4% paraformaldehyde for 30 minutes at room temperature.

Substance: CESPLKRQC (disulfide 1-9 (inferred)) [TGF-β1 mimetic peptide, reference compound]
- upregulation of collagen II and aggrecan ([1]; 10 μM, ICC): little upregulation of either protein
- p-Smad2 activation ([2]; 50 μM, 4 h, 10 mol % co-assemblies): no activation
- hydrodynamic diameter of micelles [3]: approximately 2 nm
- size of aggregates of micelles [3]: ~200 nm
- ECM synthesis (collagen II, COMP, aggrecan, Sox9) [4]: low activation

Substance: rhTGF-β1: native recombinant human TGF-β1 (R&D Systems), positive control
- half-life in its active form in vivo [5]: 2 to 3 min
- aggrecan synthesis ([1]; 10 μM, ICC): significantly increased aggrecan synthesis at similar levels
- chondrocyte phenotype (F-actin staining) [1]: maintained healthy chondrocyte phenotypes and prevented hypertrophy
- activation of p-Smad2 with addition of pan-TGF-β-neutralizing antibody 1D11 [2]: effectively neutralized

Substance: C16-AEAE (Palmitoyl-AEAE-OH; SMILES CCCCCCCCCCCCCCCC(=O)N[C@@H](C)C(=O)N[C@@H](CCC(=O)O)C(=O)N[C@@H](C)C(=O)N[C@@H](CCC(=O)O)C(=O)O) [Backbone PA-b]
- 1H spin-spin (T2) relaxation rate of terminal alkyl methyl protons [6]: 20.49 ± 0.58 s⁻¹

Substance: C16-AAEE (Palmitoyl-AAEE-OH; SMILES CCCCCCCCCCCCCCCC(=O)N[C@@H](C)C(=O)N[C@@H](C)C(=O)N[C@@H](CCC(=O)O)C(=O)N[C@@H](CCC(=O)O)C(=O)O) [Backbone PA-a]
- G′/G″ crossover % strain [7]: 7.10 ± 1.49%
- G′/G″ crossover storage modulus [7]: 0.55 ± 0.13 kPa
- 1H spin-spin (T2) relaxation rate of terminal alkyl methyl protons [6]: 3.67 ± 0.23 s⁻¹
- cells within the bulk of the gel [8]: Far fewer cells were visible

Substance: TGF PA-b: backbone PA SEQ ID NO: 8 conjugated to cyclic TGF-β1 mimetic peptide (SEQ ID NO: 1) by a linker; co-assembled with diluent Backbone PA-b (chain Palmitoyl-AEAEK-OH; peptide CESPLKRQC; disulfide II:1-II:9; not fully specified (some residues); also: co-assembled with diluent backbone PA-b)
- activation of p-Smad2 with addition of pan-TGF-β-neutralizing antibody 1D11 [2]: effectively neutralized

From patent US12570709B2, “Self-assembling peptide amphiphiles displaying a transforming growth factor beta 1 (TGF-ß1) mimetic epitope” (Northwestern University, priority 2021, dated 2026)
